Test results as given in US20240336573A1, “COMPOUND FOR THE TREATMENT AND PROPHYLAXIS OF INFECTIOUS DISEASES” (Eberhard Karls Universität Tübingen Medizinische Fakultät, priority 2021, published 2024).

Tests used:
HepG2 cells = assay: Cytotoxicity assay (LDH release); assay type: cell-based; details: 500 μM compound, 1 h at 37° C., some cells also say precipitate
Method: Cell cytotoxicity of shelf derivatives was evaluated monitoring the LDH release from HepG2 cells using the CytoTox 96@ Non-Radio Cytotoxicity Assay (Promega) according to the manufacturer's instructions. […] After incubation, 25 μl were transferred into a fresh 96-well flat clear bottom plate and mixed with 25 μl CytoTox 96@ Reagent. LDH release reactions were incubated 30 min at RT in the dark and 25 μl Stop Solution were added. LDH release was measured at 490 nm in a multiplate reader.

E. coli ATCC 25922 = assay: Sensitizer MIC assay (vancomycin); assay type: cell-based; details: compound concentration of 100 μM
Method: To test for the sensitizer properties of the compounds, the inventors then performed a sensitizer MIC assay. To this end, E. coli BW25113, E. coli JW2496-3, and E. coli ATCC 25922 inocula were prepared as described above. Each well of a 96-well plate was prefilled with a fixed compound concentration of 100 μM and a dilution series of Vancomycin ranging from […]. A sensitizing effect was defined as reduction of the MIC value of Vancomycin of the respective test strain.

SurA [1] = molecular target: T1, SurA (Escherichia coli, UniProt P0ABZ6); assay: nanoDSF of QHL compounds (Tycho); assay type: binding, E. coli; parameters: key: An increase of the inflection points in the nanoDSF experiments is indicated by (+); a decrease by (−); no changes with (none); ambiguity with a question mark (?); details: re-evaluation; 100 μM compound, 2 μM SurA, 40 mM HEPES pH 7.4
Method: Nano Differential Scanning Fluorimetry (nanoDSF) measurements of the QHL (qualified hit list) compounds provided by the ELF were performed on a Tycho system (NanoTemper).

SurA [2] = molecular target: T1, SurA; assay: nanoDSF thermal shift assay (Prometheus); assay type: binding, E. coli; parameters: key to nanoDSF pH 5 Ti#1 / nanoDSF pH 5 Ti#2 / nanoDSF pH 7.4 Ti#1 / nanoDSF pH 7.4 Ti#2: An increase of the inflection points in the nanoDSF experiments is indicated by (+); a decrease by (−); no changes with (none); ambiguity with a question mark (?); details: for nanoDSF pH 7.4 Ti#1 / nanoDSF pH 7.4 Ti#2: 40 mM HEPES pH 7.4, 150 NaCl; for nanoDSF pH 5 Ti#1 / nanoDSF pH 5 Ti#2: 50 mM HAc pH 5; for Thermal stability of SurA as detected by nanoDSF: resynthesized compounds
Method: To this end, 5 μl of a 2 mM compound solution in DMSO were mixed with 95 μl of a 20 μM SurA solution. Technical triplicate measurements were performed on a Prometheus system (NanoTemper).

luciferase = luciferase (Photinus pyralis, UniProt P08659); assay: Primary assay buffer control: interference with Luciferase per se; assay type: biochemical, firefly; parameters: key: no influence on Luc activity = 0; enhances Luc activity = +; reduces Luc activity = −
Method: In short, the Luciferase based SurA activity assay was performed in SurA Activity Assay Buffer (40 mM HEPES pH 7.4, 20 mM MgSO4, 0.5 g/I BSA). SurA aliquots were thawn at RT, activated by mild heat treatment and cooled down to RT for 10 min. SurA concentration was adjusted to 1.6 μM in Activity Assay Buffer (protein solution). Solution A containing 10 mM ATP as well as 0.3 mM Luciferin (Promega Beetle Luciferin, Potassium Salt) in water was prepared. Luciferase working solution was prepared by diluting 1 ml Luciferase working stock (100 nM) with 9 ml assay buffer. 33 μl of the protein solution were added to every 2nd row of a well of a 384-well PS, white, flat bottom plate. […] Subsequently, 2 μl of compound in DMSO were added in quadruplicates (4 wells each of protein solution and buffer controls). These compound solutions could contain either various compounds or different dilutions of the same compound allowing screening inhibitor activity in a dose dependent manner. After compound addition, plates were incubated 15 min at RT. After this incubation, 5 μl of Luciferase working solution were added to each well. […] Subsequently, the assay plate was cooled for 5 min at 4° C. followed by 10 min incubation at RT prior to luminescence measurement. Luminescence was measured in a TECAN infinite M200 pro plate reader for each well individually after injection of 10 μl Solution A.

SurA [3] = molecular target: T1, SurA; assay: Luciferase-based SurA activity assay (primary assay, in-house); assay type: biochemical, E. coli; parameters: key to primary assay SurA: SurA inhibition = +; no SurA inhibition = 0; details: for primary assay SurA: shelf derivatives evaluation
From the text: The biological function of SurA is to bind and to keep outer membrane proteins that have reached the periplasm in an unfolded but folding-competent state. The inventors' assay is based on this interaction and uses firefly Luciferase (fLuc) as a non-native substrate. […] This is exploited in the assay (FIG. 3). The loss of tertiary structure of fLuc leads to the exposure of binding sites for SurA. It is known that SurA binds selectively to a special group of substrates. These substrates have in common the specific patterns of hydrophobic amino acids that are highly enriched in the beta strands of integral outer membrane proteins. These motifs are present in OMPs of all Gram-negative bacteria and in fLuc as well. Upon mild heat treatment of fLuc and its subsequent partial unfolding, fLuc is accepted as a substrate by SurA. Of note, these intermediates served as reporter substrates to determine the activity of a […] folding chaperone. […] This interaction remains stable upon temperature reduction. Next, the temperature of the assay is reduced to room temperature and luciferase activity is subsequently measured by addition of Luciferin and ATP. In conditions without SurA, fLuc will refold into its active conformation resulting in a luminescence signal.
In short, the Luciferase based SurA activity assay was performed in SurA Activity Assay Buffer (40 mM HEPES pH 7.4, 20 mM MgSO4, 0.5 g/I BSA). SurA aliquots were thawn at RT, activated by mild heat treatment and cooled down to RT for 10 min. […] Solution A containing 10 mM ATP as well as 0.3 mM Luciferin (Promega Beetle Luciferin, Potassium Salt) in water was prepared. Luciferase working solution was prepared by diluting 1 ml Luciferase working stock (100 nM) with 9 ml assay buffer. 33 μl of the protein solution were added to every 2nd row of a well of a 384-well PS, white, flat bottom plate. […] Subsequently, 2 μl of compound in DMSO were added in quadruplicates (4 wells each of protein solution and buffer controls). These compound solutions could contain either various compounds or different dilutions of the same compound allowing screening inhibitor activity in a dose dependent manner. After compound addition, plates were incubated 15 min at RT. After this incubation, 5 μl of Luciferase working solution were added to each well. Next, the plates were incubated 25 min at 38° C. to partially unfold the Luciferase. Subsequently, the assay plate was cooled for 5 min at 4° C. followed by 10 min incubation at RT prior to luminescence measurement. Luminescence was measured in a TECAN infinite M200 pro plate reader for each well individually after injection of 10 μl Solution A.

T1 sequence (P0ABZ6 21-428): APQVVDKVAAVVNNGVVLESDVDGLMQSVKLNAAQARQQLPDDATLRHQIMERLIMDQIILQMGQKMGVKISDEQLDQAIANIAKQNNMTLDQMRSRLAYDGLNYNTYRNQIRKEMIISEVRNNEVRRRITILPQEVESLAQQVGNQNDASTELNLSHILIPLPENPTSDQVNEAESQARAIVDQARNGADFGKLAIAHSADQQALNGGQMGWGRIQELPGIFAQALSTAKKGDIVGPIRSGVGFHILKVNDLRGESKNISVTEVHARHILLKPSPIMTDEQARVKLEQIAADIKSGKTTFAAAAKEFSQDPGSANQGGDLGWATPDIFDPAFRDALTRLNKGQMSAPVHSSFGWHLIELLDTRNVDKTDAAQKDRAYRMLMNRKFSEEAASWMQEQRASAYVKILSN
Chain of luciferase (P08659 whole entry): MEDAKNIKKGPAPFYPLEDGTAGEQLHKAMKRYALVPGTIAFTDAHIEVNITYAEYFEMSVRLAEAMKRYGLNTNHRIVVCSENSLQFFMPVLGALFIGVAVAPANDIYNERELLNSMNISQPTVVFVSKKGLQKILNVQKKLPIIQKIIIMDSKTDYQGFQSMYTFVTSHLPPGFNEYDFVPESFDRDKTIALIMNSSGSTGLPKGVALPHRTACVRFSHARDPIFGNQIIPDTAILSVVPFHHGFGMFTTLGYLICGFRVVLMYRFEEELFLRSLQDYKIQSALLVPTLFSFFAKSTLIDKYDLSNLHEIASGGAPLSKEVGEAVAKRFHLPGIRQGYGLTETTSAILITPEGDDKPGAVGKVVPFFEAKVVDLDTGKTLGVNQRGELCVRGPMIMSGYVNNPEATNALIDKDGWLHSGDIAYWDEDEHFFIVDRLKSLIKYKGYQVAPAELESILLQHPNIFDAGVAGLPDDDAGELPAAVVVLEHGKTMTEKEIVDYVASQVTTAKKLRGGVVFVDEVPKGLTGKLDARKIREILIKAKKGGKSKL

Row | Structure (SMILES) | CytoTox (HepG2 cells) | MIC (reduction of vancomycin MIC) (E. coli ATCC 25922) | nanoDSF(Tycho) Ti#1 (SurA [1]) | nanoDSF(Tycho) Ti#2 (SurA [1]) | nanoDSF pH 7.4 Ti#1 (SurA [2]) | nanoDSF pH 7.4 Ti#2 (SurA [2]) | nanoDSF pH 5 Ti#1 (SurA [2]) | nanoDSF pH 5 Ti#2 (SurA [2]) | Thermal stability of SurA as detected by nanoDSF (SurA [2]) | primary assay Luciferase (luciferase) | Primary Assay ICmax (SurA [3]; QHL-10 derivatives, dose response up to 125 μM, n/d: no signal detected) | Primary Assay Amplitude (SurA [3]; amplitude of signal, n/d: no signal detected) | primary assay SurA (SurA [3])
1 | NC(=O)c1nc(Cc2ccc(OCC(=O)O)cc2)[nH]c1NC(=O)c1ccc(-c2ccccc2)cc1 [Compound 2a, 2-(4-((5-([1,1′-biphenyl]-4-carboxamido)-4-carbamoyl-1H-imidazol-2-yl)methyl)phenoxy)acetic acid] | 50.23% | yes (reduction of the MIC for vancomycin of the E. coli ATCC 25922 strain below 256 mg/l at a compound concentration of 100 μM (yes/no)) | ? | + | none | − | + | − | affected the thermal stability of SurA | − | 4 µM | high | +
2 | CN(C)c1ccc(-c2nc3cc(NC(=O)Cn4cc5ccccc5n4)ccc3[nH]2)cc1 [QHL-24] | precipitate (7.87%) | yes (reduction of the MIC for vancomycin of the E. coli ATCC 25922 strain below 256 mg/l at a compound concentration of 100 μM (yes/no)) | none | + | none | − | none | + | affected the thermal stability of SurA | − |  |  | +
